In US20200354331A1, “ICARIIN DERIVATIVES” (H. LEE MOFFITT CANCER CENTER AND RESEARCH INSTITUTE, INC., priority 2014, published 2020):
Like-named read-outs stand apart in the source and are kept apart here.

Assays:
[1] = test system: BMNCs from three healthy donors; experiment: Colony formation (CFU-E, BFU-E, CFU-GM) in MethoCult H4434; assay type: cell-based; details: healthy donor BMNCs treated 48 hours, different concentrations
Procedure: FIG. 2 depicts the effect, or lack thereof, of ICA and ICT on hematopoiesis. BMNCs from three healthy donors were treated with ICA or ICT for 48 hours after which colony formation was assessed using MethoCult H4434 complete medium with cytokines. CFU-E, BFU-E and CFU-GM were indentified and counted using an inverted light microscope. Each bar represents the mean results of three individuals with duplicate plates. Results are expressed as means±SD.
Specifically, BMNCs from three healthy donors were treated with different concentrations of ICA or ICT for 48 hours after which colony formation was assessed using MethoCult H4434 complete medium with cytokines. The mixture was placed in 35-mm culture dishes (1×10^5 cells/each dish) and incubated at 37° C. in 5% CO2 for approximately 7-14 days. After incubation, colonies of CFU-E, BFU-E and CFU-GM were indentified and counted using an inverted light microscope. […] Although, these cells were obtained from spleens, it was also found ICA/ICT has a similar effect on MDSCs isolated from tumor tissue. Here, Gr1^+ cells were isolated from tumors of 4T1 tumor-bearing mice. […] Bars represent the relative percentage of MDSC as compared to DMSO treated cells measured by flow cytometry (FIG. 3A). The production of ROS (FIG. 3B) and NO (FIG. 3C) activity of purified MDSC from tumor tissue was also measured.

MDS BMNCs = experiment: Colony formation (CFU-GM, BFU-E) in MethoCult H4434; assay type: cell-based; details: 20 uM for 48 h, 14 days culture
Procedure: Bone marrow mononuclear cells (BMCs) from MDS patients were treated with 20 uM ICT for 48 h, and then seeded into MethoCult H4434 complete medium, the mixture is placed in 35-mm culture dishes (1×10^5 cells/each dish) and incubated at 37° C. in 5% CO2 for 14 days. After incubation, colonies of CFU-GM and BFU-E were identified and counted using an inverted light microscope, as shown in FIGS. 21A and 21B respectively. Each point represents the mean results of […], and each experimental point represents duplicate plates. Results are expressed as mean value±SD.

U937 = experiment: IC50 / toxicity in cells; assay type: cell-based; details: Homo sapiens, U-937
PP2A = biological target: T1, PP2A (Homo sapiens, UniProt P67775); experiment: PP2A activity in PBMC lysates, in vitro phosphatase assay kit; assay type: cell-based; details: 48 hours, 1 μM
T1 construct: endogenous in cells; host or cells: human PBMC
Procedure: FIG. 9 depicts the effect of ICA and ICT on the activity of PP2A. Human PBMC were cultured for 48 hours with media, DMSO, 1 μM of ICA or ICT. The cell lysates were used to analyze PP2A activity using a commercial in vitro phosphatase assay kit (Millipore). Error bars represent the SEM of three separate experiments.
To understand if there is a link correlating S100A9/SIGLEC3 and PDE5 activation, SJCRH30 cells were transfected with either vector, S100A9 or SIGLEC 3. Seventy two hours post-transfection cells were lysed and assessed by Western Blot for either PDE5 or its phosphorylated counterpart. […] This represents a new pathway of MDSC activation that can be specifically targeted by ICA, ICT, and their derivatives disclosed herein.

Bone marrow = experiment: IC50 / toxicity in cells; assay type: cell-based; details: Mus musculus
Procedure: Specifically, BMNCs from three healthy donors were treated with different concentrations of ICA or ICT for 48 hours after which colony formation was assessed using MethoCult H4434 complete medium with cytokines. The mixture was placed in 35-mm culture dishes (1×10^5 cells/each dish) and incubated at 37° C. in 5% CO2 for approximately 7-14 days. After incubation, colonies of CFU-E, BFU-E and CFU-GM were indentified and counted using an inverted light microscope. […] Although, these cells were obtained from spleens, it was also found ICA/ICT has a similar effect on MDSCs isolated from tumor tissue. Here, Gr1^+ cells were isolated from tumors of 4T1 tumor-bearing mice. MDSCs were treated with 20 μM of ICA, ICT, or DMSO for 48 h. Bars represent the relative percentage of MDSC as compared to DMSO treated cells measured by flow cytometry (FIG. 3A). The production of ROS (FIG. 3B) and NO (FIG. 3C) activity of purified MDSC from tumor tissue was also measured.

[2] = test system: CD16 (FcγRIII) in CD3− CD56+ NK cells; experiment: Surface expression of CD16 in NK cells (flow cytometry); assay type: cell-based; details: PBMC from healthy donors, 48 hours treatment
Procedure: FIG. 16 depicts the effect of ICA and ICT treatment on the surface expression of CD16 (FcγRIII) in NK cells. PBMC from healthy donors were treated with ICA/ICT or DMSO for 48 hours before analysis of CD16 expression by flow cytometry. NK cells were defined as CD3^− population and analyzed for the presence of CD16±CD56^+ cells as indicated.
An alternative strategy can be performed by measuring NK-mediated antibody dependent cytotoxicity (ADCC) on SIGLEC3^+ MDSC. […] This is particularly of interest, because these Fc receptors can be critical for the development of ADCC, a cytotoxic function of NK cells. This function can involve the activation of NK cells through the ligation of CD16 with an antibody already bound to a target cell which can trigger the target cell to undergo apoptosis through the release of cytotoxic granules containing perform and granzymes. Humanized anti-SIGLEC3/CD33 antibodies can be used to apply a strategy to deplete MDSC by NK-mediated ADCC.

PBMC = experiment: IC50 / toxicity in cells; assay type: cell-based
4T1 tumors = experiment: 4T1 tumor growth in vivo; parameters: species or system BALB/c mice; details: 100 mg/kg i.p. three times weekly
Procedure: One of the most striking features of ICA and ICT is their anti-tumorigenic ability in vivo. Seven days post-infection 1 cm diameter 4T1 tumors from 5 mice were established in BALB/c mice. Mice were treated with 100 mg/kg of ICA, ICT or vehicle (i.p.) three times weekly and tumor size (mean and SD) was monitored every 2 to 3 days. The percentages of double-positive Gr-1+CD11b′ MDSCs were determined for spleens of five mice per group. Cell phenotype was evaluated by flow cytometry. […] ICA or ICT on the differentiation of MDSC.

T1 sequence (P67775 whole entry): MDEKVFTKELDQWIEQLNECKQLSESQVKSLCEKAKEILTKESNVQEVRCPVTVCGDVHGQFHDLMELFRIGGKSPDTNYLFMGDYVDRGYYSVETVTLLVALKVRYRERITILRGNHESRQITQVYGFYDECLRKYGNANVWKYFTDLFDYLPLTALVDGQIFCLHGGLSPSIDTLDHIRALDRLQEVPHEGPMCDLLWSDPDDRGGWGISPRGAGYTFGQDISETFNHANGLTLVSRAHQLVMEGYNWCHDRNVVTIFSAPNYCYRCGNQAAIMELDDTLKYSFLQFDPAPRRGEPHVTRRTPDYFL

Row | SMILES | effect on hematopoiesis (colony formation) [1] | hematopoiesis of MDS BMNCs (CFU-GM, BFU-E colonies) (MDS BMNCs) | IC50 (U937; U937, read-out: IC50) | phosphatase activity of PP2A (PP2A) | IC50 (Bone marrow; Bone marrow (bone marrow mononuclear cells, BMMC), read-out: IC50) | expression level of Fc receptor (CD16, FcγRIII) in NK cells [2] | IC50 (PBMC; read-out: IC50) | tumor growth in vivo (4T1 tumors) | IC50 (U937) | IC50 (Bone marrow; BMMC) | IC50 (PBMC)
1 | COc1ccc(-c2oc3c(CCC(C)(C)O)c(O)cc(O)c3c(=O)c2O)cc1 [ICT, 3,5,7-trihydroxy-4′-methoxy-8-(3-hydroxy-3-methylbutyl)-flavone] | do not affect hematopoiesis | increase the hematopoiesis of MDS BMNCs | > 100 µM | up-regulate the phosphatase activity of PP2A in vitro | > 100 µM | increase the expression level of Fc receptor | > 100 µM | inhibit tumor growth in vivo |  |  | 
2 | COc1ccc(-c2oc3c(CC=C(C)C)c(O[C@@H]4O[C@H](CO)[C@@H](O)[C@H](O)[C@H]4O)cc(O)c3c(=O)c2O[C@@H]2O[C@@H](C)[C@H](O)[C@@H](O)[C@H]2O)cc1 [ICA, Icariin] | do not affect hematopoiesis | increase the hematopoiesis of MDS BMNCs |  | up-regulate the phosphatase activity of PP2A in vitro |  | increase the expression level of Fc receptor |  | inhibit tumor growth in vivo | > 100 µM | > 100 µM | > 100 µM
